Laboratory results taken from US6770596B1, “Fused tricyclic compounds, process for their preparation, and herbicidal compositions containing them” (Ishihara Sangyo Kaisha Ltd., priority 2002, dated 2004).

How the values were obtained:
Format in all cases: in vivo
[1] = system: field corn (Zea mays L., var. Dekalb 535, CORN); experiment: Pre-emerge test, crop damage field corn; details: pre-emerge, 250 g ai/ha, 14 days after application, rating scale 0-100 (0 no damage, 100 complete death)
How it was run: (§1)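 Pots (10 cm, sandy loam mix) were seeded one day ahead of spraying. Test materials, dissolved in acetone, went on at 8–1000 g ai/ha in a 187 l/ha spray volume. Damage was scored 14 days later from 0 (none) to 100 (total kill).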

[2] = system: large crabgrass (Digitaria sanguinalis, DIS); experiment: Post-emerge test, large crabgrass; details: 250 g ai/ha, 14 days after application, rating scale 0-100 (0 no damage, 100 complete death)
How it was run: (§2)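 Emerged seedlings, usually at 2-3 leaves after 8-21 days' growth in sandy loam, were treated with 8-1000 g ai/ha. Treatment was an acetone spray at 187 l/ha containing 0.25% v/v non-ionic surfactant. Assessment at 14 days used a 0 (no damage) to 100 (total death) scale.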

[3] = system: soybean (Glycine max L., var. Pella 86, SOY); experiment: Pre-emerge test, crop damage soybean; details: pre-emerge, 250 g ai/ha, 14 days after application, rating scale 0-100 (0 no damage, 100 complete death)
How it was run: as §1

[4] = system: barnyardgrass (Echinachloa crus-galli, ECC); experiment: Pre-emerge test, barnyardgrass; details: 250 g ai/ha, 14 days after application, rating scale 0-100 (0 no damage, 100 complete death)
How it was run: (§3)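 Scores at 14 days after treatment use a 0–100 scale, where 0 is no damage and 100 is death of all plants. Treatments were acetone solutions sprayed at 8–1000 g ai/ha onto soil sown one day prior.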

[5] = system: redroot pigweed (Amaranthus retroflexus, AMR); experiment: Pre-emerge test, redroot pigweed; details: 250 g ai/ha, 14 days after application, rating scale 0-100 (0 no damage, 100 complete death)
How it was run: as §3

[6] = system: ivyleaf morningglory (Ipomoea hederacea, IPH); experiment: Post-emerge test, ivyleaf morningglory; details: 250 g ai/ha, 14 days after application, rating scale 0-100 (0 no damage, 100 complete death)
How it was run: as §2

[7] = system: common ragweed (Ambrosia artemisiifolia L., AML); experiment: Pre-emerge test, common ragweed; details: 250 g ai/ha, 14 days after application, rating scale 0-100 (0 no damage, 100 complete death)
How it was run: as §3

[8] = system: johnsongrass (Sorghum halepense, SOH); experiment: Pre-emerge test, johnsongrass; details: 250 g ai/ha, 14 days after application, rating scale 0-100 (0 no damage, 100 complete death)
How it was run: as §3

[9] = system: velvetleaf (Abutilon theophrasti, ABT); experiment: Pre-emerge test, velvetleaf; details: 250 g ai/ha, 14 days after application, rating scale 0-100 (0 no damage, 100 complete death)
How it was run: as §3

[10] = system: green foxtail (Setaria viridis, SEV); experiment: Post-emerge test, green foxtail; details: 250 g ai/ha, 14 days after application, rating scale 0-100 (0 no damage, 100 complete death)
How it was run: as §2

[11] = system: lambsquarters (Chenopodium album, CHA); experiment: Post-emerge test, lambsquarters; details: 250 g ai/ha, 14 days after application, rating scale 0-100 (0 no damage, 100 complete death)
How it was run: as §2

[12] = system: ivyleaf morningglory (Ipomoea hederacea, IPH); experiment: Pre-emerge test, ivyleaf morningglory; details: 250 g ai/ha, 14 days after application, rating scale 0-100 (0 no damage, 100 complete death)
How it was run: as §3

[13] = system: lambsquarters (Chenopodium album, CHA); experiment: Pre-emerge test, lambsquarters; details: 250 g ai/ha, 14 days after application, rating scale 0-100 (0 no damage, 100 complete death)
How it was run: as §3

[14] = system: field corn (Zea mays L., var. Dekalb 535, CORN); experiment: Post-emerge test, crop damage field corn; details: post-emerge, 250 g ai/ha, 14 days after application, rating scale 0-100 (0 no damage, 100 complete death)
How it was run: as §2

[15] = system: sicklepod (Cassia obtusifolia, CAO); experiment: Pre-emerge test, sicklepod; details: 250 g ai/ha, 14 days after application, rating scale 0-100 (0 no damage, 100 complete death)
How it was run: as §3

[16] = system: sicklepod (Cassia obtusifolia, CAO); experiment: Post-emerge test, sicklepod; details: 250 g ai/ha, 14 days after application, rating scale 0-100 (0 no damage, 100 complete death)
How it was run: as §2

[17] = system: wheat (Triticum aestivum); experiment: Pre-emerge test, crop damage wheat; details: pre-emerge, 250 g ai/ha, 14 days after application, rating scale 0-100 (0 no damage, 100 complete death)
How it was run: as §1

[18] = system: green foxtail (Setaria viridis, SEV); experiment: Pre-emerge test, green foxtail; details: 250 g ai/ha, 14 days after application, rating scale 0-100 (0 no damage, 100 complete death)
How it was run: as §3

[19] = system: redroot pigweed (Amaranthus retroflexus, AMR); experiment: Post-emerge test, redroot pigweed; details: 250 g ai/ha, 14 days after application, rating scale 0-100 (0 no damage, 100 complete death)
How it was run: as §2

[20] = system: common ragweed (Ambrosia artemisiifolia L., AML); experiment: Post-emerge test, common ragweed; details: 250 g ai/ha, 14 days after application, rating scale 0-100 (0 no damage, 100 complete death)
How it was run: as §2

[21] = system: large crabgrass (Digitaria sanguinalis, DIS); experiment: Pre-emerge test, large crabgrass; details: 250 g ai/ha, 14 days after application, rating scale 0-100 (0 no damage, 100 complete death)
How it was run: as §3

[22] = system: upland rice (Oryza sp., var.Tebonnet, RICE); experiment: Pre-emerge test, crop damage upland rice; details: pre-emerge, 250 g ai/ha, 14 days after application, rating scale 0-100 (0 no damage, 100 complete death)
How it was run: as §1

[23] = system: johnsongrass (Sorghum halepense, SOH); experiment: Post-emerge test, johnsongrass; details: 250 g ai/ha, 14 days after application, rating scale 0-100 (0 no damage, 100 complete death)
How it was run: as §2

[24] = system: barnyardgrass (Echinachloa crus-galli, ECC); experiment: Post-emerge test, barnyardgrass; details: 250 g ai/ha, 14 days after application, rating scale 0-100 (0 no damage, 100 complete death)
How it was run: as §2

[25] = system: cocklebur (Xanthium strumariunt, XAS); experiment: Pre-emerge test, cocklebur; details: 250 g ai/ha, 14 days after application, rating scale 0-100 (0 no damage, 100 complete death)
How it was run: as §3

[26] = system: velvetleaf (Abutilon theophrasti, ABT); experiment: Post-emerge test, velvetleaf; details: 250 g ai/ha, 14 days after application, rating scale 0-100 (0 no damage, 100 complete death)
How it was run: as §2

[27] = system: wheat (Triticum aestivum); experiment: Post-emerge test, crop damage wheat; details: post-emerge, 250 g ai/ha, 14 days after application, rating scale 0-100 (0 no damage, 100 complete death)
How it was run: as §2

[28] = system: upland rice (Oryza sp., var.Tebonnet, RICE); experiment: Post-emerge test, crop damage upland rice; details: post-emerge, 250 g ai/ha, 14 days after application, rating scale 0-100 (0 no damage, 100 complete death)
How it was run: as §2

[29] = system: cocklebur (Xanthium strumariunt, XAS); experiment: Post-emerge test, cocklebur; details: 250 g ai/ha, 14 days after application, rating scale 0-100 (0 no damage, 100 complete death)
How it was run: as §2

[30] = system: soybean (Glycine max L., var. Pella 86, SOY); experiment: Post-emerge test, crop damage soybean; details: post-emerge, 250 g ai/ha, 14 days after application, rating scale 0-100 (0 no damage, 100 complete death)
How it was run: as §2

SMILES	Pre-emerge crop damage CORN (phytotoxicity rating) [1]	Post-emerge Herbicidal Activity DIS (phytotoxicity rating) [2]	Pre-emerge crop damage SOY (phytotoxicity rating) [3]	Pre-emerge Herbicidal Activity ECC (phytotoxicity rating) [4]	Pre-emerge Herbicidal Activity AMR (phytotoxicity rating) [5]	Post-emerge Herbicidal Activity IPH (phytotoxicity rating) [6]	Pre-emerge Herbicidal Activity AML (phytotoxicity rating) [7]	Pre-emerge Herbicidal Activity SOH (phytotoxicity rating) [8]	Pre-emerge Herbicidal Activity ABT (phytotoxicity rating) [9]	Post-emerge Herbicidal Activity SEV (phytotoxicity rating) [10]	Post-emerge Herbicidal Activity CHA (phytotoxicity rating) [11]	Pre-emerge Herbicidal Activity IPH (phytotoxicity rating) [12]	Pre-emerge Herbicidal Activity CHA (phytotoxicity rating) [13]	Post-emerge crop damage CORN (phytotoxicity rating) [14]	Pre-emerge Herbicidal Activity CAO (phytotoxicity rating) [15]	Post-emerge Herbicidal Activity CAO (phytotoxicity rating) [16]	Pre-emerge crop damage WHEAT (phytotoxicity rating) [17]	Pre-emerge Herbicidal Activity SEV (phytotoxicity rating) [18]	Post-emerge Herbicidal Activity AMR (phytotoxicity rating) [19]	Post-emerge Herbicidal Activity AML (phytotoxicity rating) [20]	also measured
CC(C)C1C(=O)Nc2c3c(cc(F)c2-n2c(=O)cc(C(F)(F)F)n(C)c2=O)OCC(=O)N31 (stereo not drawn) [1-77]	100	0	100	100	100	75	100	99	100	0	90	100	100	0	90	0	99	100	25	0	Pre-emerge Herbicidal Activity DIS (phytotoxicity rating) [21]: 100; Pre-emerge crop damage RICE (phytotoxicity rating) [22]: 99; Post-emerge Herbicidal Activity SOH (phytotoxicity rating) [23]: 0; Post-emerge Herbicidal Activity ECC (phytotoxicity rating) [24]: 0; Pre-emerge Herbicidal Activity XAS (phytotoxicity rating) [25]: 98; Post-emerge Herbicidal Activity ABT (phytotoxicity rating) [26]: 50; Post-emerge crop damage WHEAT (phytotoxicity rating) [27]: 0; Post-emerge crop damage RICE (phytotoxicity rating) [28]: 35; Post-emerge Herbicidal Activity XAS (phytotoxicity rating) [29]: 50; Post-emerge crop damage SOY (phytotoxicity rating) [30]: 10
CC1Oc2cc(F)c(-c3nn(C)c(OC(F)F)c3Cl)c3c2N(CC(=O)N3)C1=O (stereo not drawn) [1-56]	50	100	15	100	100	100	100	100	100	100	100	100	100	20	100	100	55	100	100	100	Pre-emerge Herbicidal Activity DIS (phytotoxicity rating) [21]: 100; Pre-emerge crop damage RICE (phytotoxicity rating) [22]: 75; Post-emerge Herbicidal Activity SOH (phytotoxicity rating) [23]: 85; Post-emerge Herbicidal Activity ECC (phytotoxicity rating) [24]: 100; Pre-emerge Herbicidal Activity XAS (phytotoxicity rating) [25]: 100; Post-emerge Herbicidal Activity ABT (phytotoxicity rating) [26]: 100; Post-emerge crop damage WHEAT (phytotoxicity rating) [27]: 30; Post-emerge crop damage RICE (phytotoxicity rating) [28]: 99; Post-emerge Herbicidal Activity XAS (phytotoxicity rating) [29]: 100; Post-emerge crop damage SOY (phytotoxicity rating) [30]: 100
CC1C(=O)Nc2c(-c3nn(C)c(OC(F)F)c3Cl)c(F)cc3c2N1C(=O)C(C)(C)O3 (stereo not drawn) [1-60]	80	0	40	100	100	100	80	100	100	95	100	100	100	5	98	60	50	100	85	70	Pre-emerge Herbicidal Activity DIS (phytotoxicity rating) [21]: 100; Pre-emerge crop damage RICE (phytotoxicity rating) [22]: 70; Post-emerge Herbicidal Activity SOH (phytotoxicity rating) [23]: 0; Post-emerge Herbicidal Activity ECC (phytotoxicity rating) [24]: 98; Pre-emerge Herbicidal Activity XAS (phytotoxicity rating) [25]: 85; Post-emerge Herbicidal Activity ABT (phytotoxicity rating) [26]: 100; Post-emerge crop damage WHEAT (phytotoxicity rating) [27]: 30; Post-emerge crop damage RICE (phytotoxicity rating) [28]: 0; Post-emerge Herbicidal Activity XAS (phytotoxicity rating) [29]: 85; Post-emerge crop damage SOY (phytotoxicity rating) [30]: 50
Cn1nc(-c2c(F)cc3c4c2NC(=O)C(c2ccccc2)N4C(=O)CO3)c(Cl)c1C(F)(F)F (stereo not drawn) [1-21]	0	0	35	75	100	75	98	85	100	50	99	95	100	10	60	5	20	98	95	75	Pre-emerge Herbicidal Activity DIS (phytotoxicity rating) [21]: 99; Pre-emerge crop damage RICE (phytotoxicity rating) [22]: 0; Post-emerge Herbicidal Activity SOH (phytotoxicity rating) [23]: 0; Post-emerge Herbicidal Activity ECC (phytotoxicity rating) [24]: 25; Pre-emerge Herbicidal Activity XAS (phytotoxicity rating) [25]: 40; Post-emerge Herbicidal Activity ABT (phytotoxicity rating) [26]: 75; Post-emerge crop damage WHEAT (phytotoxicity rating) [27]: 45; Post-emerge crop damage RICE (phytotoxicity rating) [28]: 55; Post-emerge Herbicidal Activity XAS (phytotoxicity rating) [29]: 80; Post-emerge crop damage SOY (phytotoxicity rating) [30]: 25
